Here are results for 14 compounds from PubChem BioAssay (NCI).

Molecules are shown by their SMILES.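 Results reflect a 48-hour exposure of cells in 96-well plates to compound at five concentrations. Definition used: TGI = concentration required for complete inhibition of growth.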

Holding throughout (assay): NCI tumour cell line growth inhibition, 48 h
The test system of test [1] is HOP-62 NSCLC.
Test [2] has as its system SN12C renal.
The test system of test [3] is 786-0 renal.
Test [4] deals with NCI-H522 lung.
Test [5] deals with NCI-H23 lung.
For test [6], the system named is TK-10 renal.
The subject of test [7] is SF-268 CNS.
For test [8], the system named is MOLT-4 leukemia.
Test [9] has as its system SK-MEL-2 melanoma.
Test [10] deals with UO-31 renal.
For test [11], the system named is DU-145 prostate.

Turning to `Cc1ccc(Sc2ccccc2N)cc1`, the TGI is 29.6 µM in test [1]; over 100 µM in test [2]; over 100 µM in test [3]; 38.1 µM in [4]; 93.3 µM in [5]; over 100 µM in [6]. Also, the TGI in test [7] was over 100 µM; in [8] it was 58.4 µM; in [9] it was over 100 µM; in test [10], 31.5 µM.

`COc1ccc(/C=C/C(=O)c2sc(-c3cccnc3)nc2C)cc1`: the TGI in test [1], in [2], in [3], in test [4], in test [5] and in [6] was over 100 µM in each case. The TGI in [7] was over 100 µM; in [8], 99.5 µM; in test [9], over 100 µM; in test [10] it was over 100 µM.

On to `CCN(CC)Cc1cc(Nc2ccnc3ccc4nn(C)nc4c23)ccc1O`, for which the TGI in [1] came out at 36.8 µM; in test [2] it was 86 µM; in test [3], 49.5 µM; in test [4] it was 21.6 µM; in [5] it was 29.9 µM; in [6] it was 75.6 µM. Besides, the TGI is 36.4 µM in test [7], over 100 µM in [8] and 54 µM in test [10].

On to `CC(C)c1ccc(/C=C/c2cc(C(=O)NNC(=O)NC3CCCCC3)nc(=S)[nH]2)cc1`, for which the TGI in test [1], in [2], in test [3], in test [4], in [5] and in test [6] was over 100 µM throughout. Moreover, the TGI in [7] and in test [10] was over 100 µM throughout.

In the case of `CN1CC2=C(NC(=S)NC2c2ccccc2Cl)/C(=C/c2ccccc2Cl)C1` (configuration not stated), the TGI in [1], in test [2], in [11], in test [3], in test [4] and in test [5] was over 100 µM each time. Moreover, the TGI in test [6] is over 100 µM; in test [7] it was over 100 µM; in [8], 75.5 µM; in [9] it was over 100 µM; in test [10], 93.1 µM.

Consider `C/C(=N/O)c1sc(-c2nc(C)c(/C(C)=N\O)s2)nc1C`, for which the TGI in [2], in [3], in [5], in test [7], in test [8] and in [10] was over 100 µM in each case.

Consider `O=C(O)c1ccc([C@@H]2C(=O)N(O)[C@@H]3C=CC[C@@H]32)cc1`, for which the TGI in test [1], in test [2], in [3], in test [4], in test [5] and in test [6] was over 100 µM in each case. The TGI in test [7], in [8], in [9] and in test [10] was over 100 µM throughout.

As to `Cc1nc2c3c(ccc2[nH]c1=O)C(=O)c1ccccc1C3=O`, the TGI in test [1], in test [2], in [3], in [4], in test [5] and in [6] was over 100 µM each time. The TGI in [7] and in [10] was over 100 µM in each case.

`COC(=O)C(=O)C(/C(=N/N)C(=O)Nc1ccccc1C(N)=O)c1nc2ccc([N+](=O)[O-])cc2[nH]c1=O` (configuration not stated): the TGI in [1], in test [2], in test [3], in [4], in test [5] and in [6] was over 100 µM in each case. Besides, the TGI in test [7], in test [8], in test [9] and in test [10] was over 100 µM each time.

In the case of `O=C1CC2CC(CC3(CO3)C2)C1F` (configuration not stated), the TGI in [1], in test [2], in [11], in test [3], in test [4] and in test [5] was over 100 µM each time. Also, the TGI in [6], in test [7], in [8], in test [9] and in [10] was over 100 µM throughout.

For `CC(C)OP(=O)(OC(C)C)C(=NCCN=C(NNc1ccccc1[N+](=O)[O-])P(=O)(OC(C)C)OC(C)C)NNc1ccccc1[N+](=O)[O-]`, the TGI in test [1], in test [2], in test [3], in test [4], in test [5] and in test [6] was over 100 µM throughout. The TGI in test [7] was over 100 µM; in [8] it was over 100 µM; in [9], 40 µM; in [10], 71.5 µM.

For `CC1=C(C(=O)CC(=O)C(=O)Nc2ccc(C)c(C)c2)Sc2ccccc2N1`, the TGI in test [1], in [2], in [3], in [4], in test [5] and in [6] was over 100 µM throughout. In addition, the TGI in test [7] and in [10] was over 100 µM throughout.

Consider `COc1ccc2c(c1)[n+]([O-])c(/C(C)=N/NC(=O)c1ccccc1O)c(C)[n+]2[O-]`, for which the TGI in [1], in test [2], in test [3], in test [4], in test [5] and in test [6] was over 100 µM in each case. For the same compound, the TGI in test [7], in test [8], in test [9] and in [10] was over 100 µM throughout.

For `O=[N+]([O-])C(/C=C(\Cl)[N+](=O)[O-])=C(N1CCCCC1)N1CCCCC1`, the TGI in test [1], in test [2], in [11], in test [3], in [4] and in test [5] was over 100 µM throughout. Further, the TGI was over 100 µM in test [6]; over 100 µM in [7]; over 100 µM in [8]; over 100 µM in test [9]; 75.7 µM in test [10].
